Test results published in paper PMC10762078, “Role of UPF1-LIN28A interaction during early differentiation of pluripotent stem cells” (Nature Communications, 2024).
Ends that are not written are not given here.

How the values were obtained:
[1] = test system: nonsense-mediated mRNA decay (NMD); experiment: NMD reporter (Gl, GPx1) mRNA by RT-qPCR in LIN28A-expressing HeLa cells with CPP-peptides (Fig. 5c); format: cell-based; details: for relative GPx1 mRNA level / relative Gl mRNA level: normalised to MUP
Experimental: Fig. 5 CPP-conjugated peptide inhibits UPF1-LIN28A interaction. a Schematic representation of designated CPP-conjugated peptides. The amino acid sequences and positions of each peptide on UPF1 are indicated. CPP-P1 and -P2 served as negative controls. CPP-FITC was used to evaluate cell-penetrating ability in cells. b 293T cell lysates co-transfected with pCMV-MYC-UPF1 and pGEX-GST-LIN28A and incubated with the indicated CPP-conjugated peptides were employed for GST pull-down. c Relative levels of NMD reporters were measured in LIN28A-expressing HeLa cells incubated with the indicated CPP-conjugated peptides. mRNA level was normalised to that of MUP mRNA. d PLA was performed using LIN28A-overexpressing HeLa cells and hPSCs in the presence of indicated peptides. Red: fluorophore in amplified DNA circle, and Blue: DAPI stained nucleus. Scale bars, 50 μm. Unpaired Student’s t-test was used. Data are presented as mean values ± SEM. All statistical test used were two-sided. The minimum number of independent biological replicate experiments was b–d n = 3. The experiments were conducted three times, each iteration producing consistent results.
(§1) For CPP-conjugated peptide delivery, HeLa, 293T, and PA-1 cells were incubated with CPP-conjugated peptides or CPP-FITC at 2 μM in DMEM with 10% FBS for 12 h a day before cell harvest. hPSCs were treated with CPP-conjugated peptides at 10 μM in mTeSR Plus Medium, and the peptide-containing medium was changed every day over 10 days. The ROCK inhibitor (Tocris Bioscience, Y-27632) treated-hPSCs were dissociated into single cells using Accutase (Merck, SCR005) and differentiated into ectoderm, mesoderm, and endoderm using the STEMdiff Trilineage Differentiation Kit ([…] Technologies, 05230) following the manufacturer’s protocol. Differentiated cells treated with CPP-conjugated peptides were analysed at 0, 3, and 5 days for ectoderm and endoderm, and at 0, 3, and 4 days for mesoderm.
Total RNA purification and RT-qPCR
Total RNA was extracted using TRIzol reagent (Invitrogen) according to the manufacturer’s protocol. After extraction, RNA was incubated with RQ1 RNase-Free DNase (Promega) to remove the exogenous and endogenous DNA.
(§2) cDNA was synthesised using RevertAid Reverse Transcriptase (Thermo Fisher Scientific, EP0441) with synthesised random hexamer (Macrogen) for total RNA or stem-loop primers for miRNA. For RT-qPCR reactions, the SensiFAST SYBR No-ROX kit (Meridian Bioscience) was used according to the manufacturer’s protocol. All data analysis and visualisation were conducted using R 3.6.1 [www.r-project.org] or GraphPad Prism 10. RT primers for miRNA and RT-qPCR primer sequences are provided in Supplementary Data 6.
Fold change in NMD efficiency represents the ratio of test NMD (PTC-containing transcript) to control NMD (PTC-free transcript), where NMD is the relative abundance of PTC-containing mRNA divided by the relative abundance of PTC-free mRNA. The abundance of MUP mRNA was used as the reference.

CHA15 cells = experiment: RT-qPCR of indicated transcripts (NMD targets, pluripotency markers) in CPP-peptide-treated CHA15 cells (Supplementary Fig. 6d); format: cell-based, human; details: Fig. s6d; for DLK1 mRNA level, mean / FRZB mRNA level, mean / GLI2 mRNA level, mean / MAPK7 mRNA level, mean / NANOG mRNA level, mean / NNAT mRNA level, mean / PDZD4 mRNA level, mean / POU5F1 mRNA level, mean / SERPINB9 mRNA level, mean / SIX3 mRNA level, mean / SLC7A5 mRNA level, mean / SNAP25 mRNA level, mean / SOX2 mRNA level, mean / TRMT61A mRNA level, mean / WLS mRNA level, mean: mean of 3 replicates
Experimental: as §1, with “mesoderm. […]” for “mesoderm.”
as §2, with “Data 6. […]” for “Data 6.”
Scale bars, 100 μm . d (Corresponding to Fig. 6d) RT -qPCR was perform ed to evaluate the level of indicated transcripts upon the indicated peptide treatm ent in CHA15 cells. e T ranscriptom e analysis was perf orm ed using signif icantly changed transcripts (p < 0.05) f rom siLIN28A or siControl in the indicated CPP-peptide treated CHA15 cells. […]
5p and m iR-16- 5p was shown as CDF graphs. T he relative level of m RNA was norm alised to that of U6 snRNA in (c, d, and f). K–S tests were used for e and f. Unpaired Student’s t-test was used for c , d, and f . * p < 0.05, ** p < 0.01, *** p < 0.001. Exact p -values were provided in Source data. Data are presented as m ean values ± SEM. All statistical test used were two- sided. T he m inim um num ber of independent biological replicate experim ents was a and e n = 2, b–d and f n = 3. T he experim ents were conducted three tim es, each iteration producing consistent results.

[2] = LIN28A-expressing HeLa, CPP-peptide, replicate set1
[3] = LIN28A-expressing HeLa, CPP-peptide, replicate set2
[4] = LIN28A-expressing HeLa, CPP-peptide, replicate set3
[5] = unpaired t test, two-tailed, df=4

Row | Substance | relative GPx1 mRNA level [1, 2] | relative Gl mRNA level [1, 2] | relative GPx1 mRNA level [1, 3] | relative Gl mRNA level [1, 3] | relative GPx1 mRNA level [1, 4] | relative Gl mRNA level [1, 4] | DLK1 mRNA level, mean (CHA15 cells) | FRZB mRNA level, mean (CHA15 cells) | GLI2 mRNA level, mean (CHA15 cells) | MAPK7 mRNA level, mean (CHA15 cells) | NANOG mRNA level, mean (CHA15 cells) | NNAT mRNA level, mean (CHA15 cells) | PDZD4 mRNA level, mean (CHA15 cells) | POU5F1 mRNA level, mean (CHA15 cells) | SERPINB9 mRNA level, mean (CHA15 cells) | SIX3 mRNA level, mean (CHA15 cells) | SLC7A5 mRNA level, mean (CHA15 cells) | SNAP25 mRNA level, mean (CHA15 cells) | SOX2 mRNA level, mean (CHA15 cells) | TRMT61A mRNA level, mean (CHA15 cells) | also measured
1 | KKKWCRKKKSSADEKRYRALKRTAERELLMNA [CPP-P8, CPP conjugated to P8] | – | – | – | – | – | – | – | – | – | – | – | – | – | – | – | – | – | – | – | – | increased Gl Ter and GPx1 Ter levels caused by LIN28A ([1]; LIN28A-expressing HeLa, 2 μM, 12 h): efficiently reversed by CPP-P8
2 | KKKWCRKKKSSADEKRYRALKRTAERELLMNA [P8] | 1.006 | 1.305 | 1.229 | 0.7968 | 0.4585 | 1.128 | 56.31 | 8.725 | 0.6516 | 0.7487 | 0.4762 | 3.136 | 0.2348 | 0.5449 | 0.7287 | 16.62 | 0.3065 | 0.3657 | 1.107 | 0.5794 | GPx1 mRNA, mean ([1]; LIN28A-expressing HeLa, CPP-peptide, mean in t-test output, n = 3): 0.2385; GPx1 mRNA, difference between means (C - B) ± SEM ([1]; LIN+P8 minus LIN+P1): -0.4015 ± 0.06473; Gl mRNA, difference between means (C - B) ± SEM ([1]; LIN+P8 minus LIN+P1): -1.443 ± 0.3024; WLS mRNA level, mean (CHA15 cells): 7.117; DLK1, difference between means ± SEM vs. P1 (CHA15 cells; [5]): 55.31 ± 2.539; FRZB, difference between means ± SEM vs. P1 (CHA15 cells; [5]): 7.724 ± 0.7174; GLI2, difference between means ± SEM vs. P1 (CHA15 cells; [5]): -0.3484 ± 0.08883; MAPK7, difference between means ± SEM vs. P1 (CHA15 cells; [5]): -0.2513 ± 0.07831; NANOG, difference between means ± SEM vs. P1 (CHA15 cells; [5]): -0.5239 ± 0.0638; NNAT, difference between means ± SEM vs. P1 (CHA15 cells; [5]): 2.136 ± 0.5570; PDZD4, difference between means ± SEM vs. P1 (CHA15 cells; [5]): -0.7652 ± 0.01959; POU5F1, difference between means ± SEM vs. P1 (CHA15 cells; [5]): -0.4552 ± 0.05944; SERPINB9, difference between means ± SEM vs. P1 (CHA15 cells; [5]): -0.2711 ± 0.04259; SIX3, difference between means ± SEM vs. P1 (CHA15 cells; [5]): 15.62 ± 1.865; SLC7A5, difference between means ± SEM vs. P1 (CHA15 cells; [5]): -0.6935 ± 0.02913; SNAP25, difference between means ± SEM vs. P1 (CHA15 cells; [5]): -0.6344 ± 0.08552; SOX2, difference between means ± SEM vs. P1 (CHA15 cells; [5]): 0.1072 ± 0.1176; TRMT61A, difference between means ± SEM vs. P1 (CHA15 cells; [5]): -0.4206 ± 0.05922; WLS, difference between means ± SEM vs. P1 (CHA15 cells; [5]): 6.117 ± 0.3119
3 | N-MPELQKLQQLKDE-C [P2, peptide derived from the UPF1 (419–700) domain] | – | – | – | – | – | – | – | – | – | – | – | 0.9363 | – | – | 0.9791 | – | – | – | – | – | FRZB, difference between means ± SEM vs. P1 (CHA15 cells; [5]): -0.02698 ± 0.06622; GLI2, difference between means ± SEM vs. P1 (CHA15 cells; [5]): -0.05239 ± 0.08994; MAPK7, difference between means ± SEM vs. P1 (CHA15 cells; [5]): 0.03902 ± 0.06368; NNAT, difference between means ± SEM vs. P1 (CHA15 cells; [5]): -0.06363 ± 0.1386; PDZD4, difference between means ± SEM vs. P1 (CHA15 cells; [5]): 0.05466 ± 0.04504; SERPINB9, difference between means ± SEM vs. P1 (CHA15 cells; [5]): -0.02067 ± 0.08291; SIX3, difference between means ± SEM vs. P1 (CHA15 cells; [5]): 0.1242 ± 0.09936; SLC7A5, difference between means ± SEM vs. P1 (CHA15 cells; [5]): 0.1166 ± 0.05272; SNAP25, difference between means ± SEM vs. P1 (CHA15 cells; [5]): 0.01594 ± 0.05751; SOX2, difference between means ± SEM vs. P1 (CHA15 cells; [5]): -0.1171 ± 0.06917; TRMT61A, difference between means ± SEM vs. P1 (CHA15 cells; [5]): 0.0576 ± 0.08417; WLS, difference between means ± SEM vs. P1 (CHA15 cells; [5]): -0.1429 ± 0.08376
4 | N-QKLDQKELQLEPM-C [P1, reference compound] | 2.435 | 3.179 | 2.54 | 5.571 | 2.254 | 4.729 | 1 | 1 | 1 | 1 | 1 | – | 1 | 1 | – | 1 | 1 | 1 | 1 | 1 | relative Gl mRNA level ([1]; FLAG control (no LIN28A) HeLa, CPP-peptide, replicate set2): 1.21; relative GPx1 mRNA level ([1]; FLAG control (no LIN28A) HeLa, CPP-peptide, replicate set3): 1.026; WLS mRNA level, mean (CHA15 cells): 1
